# Values quoted from earlier work in PubChem BioAssay AID1259409 (Chemical Carcinogenesis Research Information System (CCRIS), 2018).
# Tested on: rodent chemically induced tumor inhibition, incidence and multiplicity
# Experiment: CCRIS tumor inhibitor studies
# Details: Route [Inhibitor]: DERMAL, Species: MOUSE, Target Tissue: Type of Lesion: SKIN: PAPILLOMA, Promoter: 12-O-TETRADECANOYLPHORBOL-13-ACETATE, 16561-29-8
smiles,measurement,setting,value
O=c1cc(-c2ccccc2)oc2c1ccc1ccccc12,"tumour outcome (control, treated, inhibition, significance)","Carcinogen: 7,14-DIMETHYLBENZO[A,H]ANTHRACENE, 35335-07-0, Dose [Inhibitor]: 0, 370 NMOL IN 0.2 ML ACETONE APPLIED 5 MIN PRIOR TO CARCINOGEN (STUDY DURATION: 21 WK), Strain/Sex: SENCAR/FEMALE, Dose [Carcinogen]: 47.5 NMOL IN 0.2 ML ACETONE ONCE","97%, 96%, 1%, not calculated"
same,"tumour outcome (control, treated, inhibition, significance)","Carcinogen: 7,14-DIMETHYLBENZO[A,H]ANTHRACENE, 35335-07-0, Dose [Inhibitor]: 0, 3700 NMOL IN 0.2 ML ACETONE APPLIED 5 MIN PRIOR TO CARCINOGEN (STUDY DURATION: 21 WK), Strain/Sex: SENCAR/FEMALE, Dose [Carcinogen]: 47.5 NMOL IN 0.2 ML ACETONE ONCE","97%, 97%, 0%"
same,"tumour outcome (control, treated, inhibition, significance)","Carcinogen: 7-(BROMOMETHYL)BENZ[A]ANTHRACENE, 24961-39-3, Dose [Inhibitor]: 100 UG IN 0.2 ML ACETONE ONCE 5 MIN BEFORE CARCINOGEN TREATMENT (STUDY DURATION: 31 WK), Strain/Sex: CD-1/FEMALE, Dose [Carcinogen]: 3125 NMOL IN 0.2 ML ACETONE ONCE","55%, 30%, 45%, not calculated"
same,"tumour outcome (control, treated, inhibition, significance)","Carcinogen: 7-BROMOMETHYL-12-METHYLBENZ[A]ANTHRACENE, 16238-56-5, Dose [Inhibitor]: 100 UG IN 0.2 ML ACETONE ONCE 5 MIN BEFORE CARCINOGEN TREATMENT (STUDY DURATION: 31 WK), Strain/Sex: CD-1/FEMALE, Dose [Carcinogen]: 600 NMOL IN 0.2 ML ACETONE ONCE","96%, 72%, 25%, not calculated"
same,"tumour outcome (control, treated, inhibition, significance)","Carcinogen: 7-FORMYL-12-METHYLBENZ[A]ANTHRACENE, 13345-61-4, Dose [Inhibitor]: 100 UG IN 0.2 ML ACETONE ONCE 5 MIN BEFORE CARCINOGEN TREATMENT (STUDY DURATION: 31 WK), Strain/Sex: CD-1/FEMALE, Dose [Carcinogen]: 740 NMOL IN 0.2 ML ACETONE ONCE","84%, 63%, 25%, not calculated"
same,"tumour outcome (control, treated, inhibition, significance)","Carcinogen: 7-HYDROXYMETHYL-12-METHYLBENZ[A]ANTHRACENE, 568-75-2, Dose [Inhibitor]: 100 UG IN 0.2 ML ACETONE ONCE 5 MIN BEFORE CARCINOGEN TREATMENT (STUDY DURATION: 31 WK), Strain/Sex: CD-1/FEMALE, Dose [Carcinogen]: 400 NMOL IN 0.2 ML ACETONE ONCE","48%, 52%, -8%, not calculated"
same,"tumour outcome (control, treated, inhibition, significance)","Carcinogen: 12-BROMOMETHYL-7-METHYLBENZ[A]ANTHRACENE, 59230-81-8, Dose [Inhibitor]: 100 UG IN 0.2 ML ACETONE ONCE 5 MIN BEFORE CARCINOGEN TREATMENT (STUDY DURATION: 31 WK), Strain/Sex: CD-1/FEMALE, Dose [Carcinogen]: 600 NMOL IN 0.2 ML ACETONE ONCE","87%, 74%, 15%, not calculated"
same,"tumour outcome (control, treated, inhibition, significance)","Carcinogen: BENZO[A]PYRENE, 50-32-8, Dose [Inhibitor]: 10 UG IN 0.2 ML ACETONE ONCE 5 MINUTES BEFORE CARCINOGEN TREATMENT (STUDY DURATION: 31 WK), Strain/Sex: CD-1/FEMALE, Dose [Carcinogen]: 400 NMOL IN 0.2 ML ACETONE ONCE","90%, 90%, 0%, not calculated"
same,"tumour outcome (control, treated, inhibition, significance)","Carcinogen: BENZO[A]PYRENE, 50-32-8, Dose [Inhibitor]: 100 UG IN 0.2 ML ACETONE ONCE 5 MINUTES BEFORE CARCINOGEN TREATMENT (STUDY DURATION: 31 WK), Strain/Sex: CD-1/FEMALE, Dose [Carcinogen]: 400 NMOL IN 0.2 ML ACETONE ONCE","90%, 80%, 11%, not calculated"
same,"tumour outcome (control, treated, inhibition, significance)","Carcinogen: BENZO[A]PYRENE, 50-32-8, Dose [Inhibitor]: 200 UG IN 0.2 ML ACETONE ONCE 5 MINUTES BEFORE CARCINOGEN TREATMENT (STUDY DURATION: 31 WK), Strain/Sex: CD-1/FEMALE, Dose [Carcinogen]: 400 NMOL IN 0.2 ML ACETONE ONCE","90%, 77%, 14%, not calculated"
same,"tumour outcome (control, treated, inhibition, significance)","Carcinogen: DIBENZO[A,H]ANTHRACENE, 53-70-3, Dose [Inhibitor]: 0, 370 NMOL IN 0.2 ML ACETONE APPLIED 5 MIN PRIOR TO CARCINOGEN (STUDY DURATION: 21 WK), Strain/Sex: SENCAR/FEMALE, Dose [Carcinogen]: 200 NMOL IN 0.2 ML ACETONE ONCE","100%, 77%, 23%, not calculated"
same,"tumour outcome (control, treated, inhibition, significance)","Carcinogen: DIBENZO[A,H]ANTHRACENE, 53-70-3, Dose [Inhibitor]: 0, 3700 NMOL IN 0.2 ML ACETONE APPLIED 5 MIN PRIOR TO CARCINOGEN (STUDY DURATION: 21 WK), Strain/Sex: SENCAR/FEMALE, Dose [Carcinogen]: 200 NMOL IN 0.2 ML ACETONE ONCE","100%, 80%, 20%, not calculated"
